Patent US4350704A, “Substituted acyl derivatives of octahydro-1H-indole-2-carboxylic acids” (Warner-Lambert Company, priority 1981, dated 1982)
Counter-ions that a name gives are not always drawn.

Molecular target: T1, guinea pig serum ACE (Cavia porcellus, UniProt H0UWL7)
T1 construct: ACE from guinea pig serum; from tissue; host or cells: guinea pig serum
T1 sequence (H0UWL7 33-1302): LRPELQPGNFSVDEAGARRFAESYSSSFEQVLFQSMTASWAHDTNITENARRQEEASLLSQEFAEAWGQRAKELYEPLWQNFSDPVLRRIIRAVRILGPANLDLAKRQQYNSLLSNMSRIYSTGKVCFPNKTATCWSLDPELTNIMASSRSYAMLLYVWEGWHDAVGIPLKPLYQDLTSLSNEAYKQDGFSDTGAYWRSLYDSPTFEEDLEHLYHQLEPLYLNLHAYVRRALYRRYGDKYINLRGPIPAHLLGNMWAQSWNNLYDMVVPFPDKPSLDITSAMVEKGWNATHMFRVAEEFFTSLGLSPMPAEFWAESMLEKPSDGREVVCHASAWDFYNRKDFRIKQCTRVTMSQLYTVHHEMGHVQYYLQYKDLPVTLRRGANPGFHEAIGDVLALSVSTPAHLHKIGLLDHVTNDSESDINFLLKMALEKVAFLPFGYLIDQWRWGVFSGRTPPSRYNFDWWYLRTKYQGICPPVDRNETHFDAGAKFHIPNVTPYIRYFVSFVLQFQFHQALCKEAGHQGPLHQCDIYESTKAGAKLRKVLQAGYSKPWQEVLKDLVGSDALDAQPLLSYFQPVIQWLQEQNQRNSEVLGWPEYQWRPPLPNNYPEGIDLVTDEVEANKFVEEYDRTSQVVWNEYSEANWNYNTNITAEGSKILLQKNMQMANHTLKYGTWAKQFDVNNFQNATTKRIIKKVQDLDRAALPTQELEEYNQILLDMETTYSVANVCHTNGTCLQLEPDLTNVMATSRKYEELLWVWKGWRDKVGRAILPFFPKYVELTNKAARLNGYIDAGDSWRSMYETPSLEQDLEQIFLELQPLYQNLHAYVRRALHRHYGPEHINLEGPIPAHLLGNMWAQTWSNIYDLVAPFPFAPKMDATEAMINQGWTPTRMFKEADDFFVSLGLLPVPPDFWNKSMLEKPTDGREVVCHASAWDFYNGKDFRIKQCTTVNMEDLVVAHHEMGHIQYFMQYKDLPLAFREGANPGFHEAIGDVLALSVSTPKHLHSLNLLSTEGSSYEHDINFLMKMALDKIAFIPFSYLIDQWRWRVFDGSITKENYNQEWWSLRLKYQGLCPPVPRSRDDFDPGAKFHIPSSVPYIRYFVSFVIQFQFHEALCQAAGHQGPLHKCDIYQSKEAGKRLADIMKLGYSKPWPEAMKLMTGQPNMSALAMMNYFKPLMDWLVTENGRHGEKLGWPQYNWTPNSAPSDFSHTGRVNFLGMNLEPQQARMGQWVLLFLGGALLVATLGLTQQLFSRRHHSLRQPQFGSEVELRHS
Assay: In vitro ACE Assay: angiotensin converting enzyme inhibitory activity
Format: biochemical
Conditions: 10 min preincubation, 3H-hippuryl-glycylglycine substrate, 60 minute incubation at 37° C., read-out: IC50, Activity of Compounds of Formula V
Description: In vitro ACE Assay: Angiotensin converting enzyme (ACE) inhibitory activity is determined by assaying guinea pig serum ACE in the presence and absence of the test compound. ACE from guinea pig serum and the test compounds are preincubated for 10 minutes before the addition of the labelled substrate ^3 H-hippuryl-glycylglycine. […] ACE cleaves the hippuryl-glycyl bond to form the dipeptide glycyl-glycine and ^3 H-hippuric acid. The ^3 H-hippuric acid is then extracted with ethyl acetate and the ACE inhibition of a given sample calculated on the basis of the ^3 H-hippuric acid generated.

Row | IC50 | SMILES
1 | 5.2 nM | CC(CS)C(=O)N1[C@H](C(=O)O)C[C@@H]2CCCC[C@@H]21 (single isomer, unassigned; diastereomer a) [V: R=H; R1=CH3; R2=H; l, A, (1)-(2α, 3aβ, 7aβ)-Octahydro-1-(3-mercapto-2-methylpropanoyl)-1H-2-carboxylic Acid (Diastereomer A), Dicyclohexylamine Salt]
2 | 3800 nM | CCOC(=O)[C@@H]1C[C@@H]2CCCC[C@@H]2N1C(=O)CCSC(C)=O (relative stereo) [V: R=C2H5; R1=H; R2=CH3CO; --, Ethyl (2α, 3aβ, 7aβ)-Octahydro-1-[3-(acetylthio)propanoyl]-1H-indole-2-carboxylate]
3 | 450 nM | CC(=O)SCCC(=O)N1[C@H](C(=O)O)C[C@@H]2CCCC[C@@H]21 (relative stereo) [V: R=H; R1=H; R2=CH3CO; --, (2α, 3aβ, 7aβ)-Octahydro-1-[3-(acetylthio)propanoyl]-1H-indole-2-carboxylic Acid]
4 | 58 nM | CC(C)(C)C(=O)SCCC(=O)N1[C@H](C(=O)O)C[C@@H]2CCCC[C@@H]21 (relative stereo) [V: R=H; R1=H; R2=(CH3)3CCO; dl]
5 | 540 nM | CC(CSC(=O)c1ccccc1)C(=O)N1[C@H](C(=O)O)C[C@@H]2CCCC[C@@H]21 (single isomer, unassigned; diastereomer a) [V: R=H; R1=CH3; R2=PhCO; l, A, (1)-(2α, 3aβ, 7aβ)-Octahydro-1-[3-(benzoylthio)-2-methylpropanoyl]-1H-indole-2-carboxylic Acid (Diastereomer A)]
6 | 21 nM | O=C(O)[C@@H]1C[C@@H]2CCCC[C@@H]2N1C(=O)CCS (relative stereo) [V: R=H; R1=H; R2=H; --, (2α, 3aβ, 7aβ)-Octahydro-1-(3-mercaptopropanoyl)-1H-indole-2-carboxylic Acid]
